Biological target: T1, human glucagon receptor (Homo sapiens, UniProt P47871)
T1 construct: expressed in transfected cells; host or cells: CHO-K1 cells, stably transfected
Assay: Glucagon cAMP assay (Cisbio cAMP detection)
Type: cell-based
Procedure: The Cisbio cAMP detection assay is used to determine the ability of punitive glucagon antagonist to block glucagon induced cAMP production. Potential glucagon antagonists are re-suspended and diluted in 100% DMSO. Prior to use in the Glucagon cAMP assay 100×DMSO compound stocks are diluted 20× with DMEM-F12 media (Invitrogen) containing either 0.1% or 4% BSA. 2 uls of 5× compound stocks are spotted into the appropriate wells of low binding white solid bottom 384 well plates (Corning). 2 uls of 5% DMSO or known glucagon antagonist are added to each plate to define the assay window. CHOK1 cells stably transfected with the human glucagon receptor are removed from culture flasks with cell dissociation buffer. Cell pellets are re-suspended, at a concentration of 8.3e^5 cells/ml in DMEM-F12 with or without 4% BSA and 200 uM IBMX. 6 uls of cell suspensions are added to the assay plates. Plates are incubated for 20 min at room temperature prior to the addition of a 100 pM challenge dose of glucagon. On a separate plate glucagon dose response curves are run to determine the EC50 of glucagon. After a 30 min room temperature incubation the reaction is terminated by the addition of lysis buffer containing the cAMP detection reagents. Plates are incubated for an additional 60 min at room temperature prior to being read on the Perkin Elmer fluorescent plate reader. Raw is converted to nM of cAMP produced based on a cAMP standard curve. Converted data is then analyzed using the Pfizer data analysis program. IC50 values are determined from the generated sigmoidal dose response curves. Kb values are the calculated using a modified Cheng-Prusoff equation.

T1 sequence (P47871 26-477): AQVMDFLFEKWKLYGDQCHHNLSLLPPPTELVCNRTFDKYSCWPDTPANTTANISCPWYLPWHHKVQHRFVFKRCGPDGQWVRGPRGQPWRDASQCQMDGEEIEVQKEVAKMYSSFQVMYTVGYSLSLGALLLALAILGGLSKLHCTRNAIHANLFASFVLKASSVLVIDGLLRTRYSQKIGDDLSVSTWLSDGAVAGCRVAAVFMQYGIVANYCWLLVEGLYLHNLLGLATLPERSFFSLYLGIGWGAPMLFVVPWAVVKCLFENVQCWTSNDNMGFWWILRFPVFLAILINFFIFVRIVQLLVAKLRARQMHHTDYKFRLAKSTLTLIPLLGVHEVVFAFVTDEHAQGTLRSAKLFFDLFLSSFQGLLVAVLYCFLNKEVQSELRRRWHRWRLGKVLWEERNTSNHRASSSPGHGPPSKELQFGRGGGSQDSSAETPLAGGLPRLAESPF

First: CC(C)CC(Nc1ccc(C(=O)NCCC(=O)O)cn1)c1ccc(-c2ccc(C(F)(F)F)cc2)cc1 (racemic) [Example 1.2, (+/−)-3-(6-(3-methyl-1-(4′-(trifluoromethyl)biphenyl-4-yl)butylamino)nicotinamido)propanoic acid]
Second: CCC(Nc1ccc(C(=O)NCCC(=O)O)cn1)c1ccc(-c2ccc(C(F)(F)F)cc2)cc1 (racemic) [Example 1.11]
The Kb of the first is 2-fold lower: 0.14 µM for the first, 0.28 µM for the second.

Going from `CC(C)CC(Nc1ncc(C(=O)NCCC(=O)O)cn1)c1ccc(-c2ccc(C(F)(F)F)cc2)cc1` (racemic) [Example 1.4, (+/−)-3-(2-(3-methyl-1-(4′-(trifluoromethyl)biphenyl-4-yl)butylamino)pyrimidine-5-carboxamido)propanoic acid] to `CC(C)CC(Nc1cnc(C(=O)NCCC(=O)O)cn1)c1ccc(-c2ccc(C(F)(F)F)cc2)cc1` (racemic) [Example 1.16, (+/−)-3-(5-(3-methyl-1-(4′-(trifluoromethyl)biphenyl-4-yl)butylamino)pyrazine-2-carboxamido)propanoic acid], the Kb falls from 0.56 µM to 0.15 µM (3.7-fold).

`CCCC(Nc1ccc(C(=O)NCCC(=O)O)cn1)c1ccc(-c2ccc(C(F)(F)F)cc2)cc1` (racemic) [Example 1.7, (+/−)-3-(6-(1-(4′-(trifluoromethyl)biphenyl-4-yl)butylamino)nicotinamido)propanoic acid] and `CC(C)(C)CC(Nc1ccc(C(=O)NCCC(=O)O)cn1)c1ccc(-c2ccc(C(F)(F)F)cc2)cc1` (racemic) [Example 1.33, (+/−)-3-(6-(3,3-dimethyl-1-(4′-(trifluoromethyl)biphenyl-4-yl)butylamino)nicotinamido)propanoic acid] are within 1.5-fold of each other in Kb: 0.17 µM for the first, 0.12 µM for the second.

Going from `CC(C)C(Nc1ccc(C(=O)NCCC(=O)O)cn1)c1ccc(-c2ccc(C(F)(F)F)cc2)cc1` (racemic) [Example 1.10, (+/−)-3-(6-(2-methyl-1-(4′-(trifluoromethyl)biphenyl-4-yl)propylamino)nicotinamido)propanoic acid] to `O=C(O)CCNC(=O)c1ccc(NC(c2ccc(-c3ccc(C(F)(F)F)cc3)cc2)C2CC2)nc1` (racemic) [Example 1.34, (+/−)-3-(6-(cyclopropyl(4′-(trifluoromethyl)biphenyl-4-yl)methylamino)nicotinamido)propanoic acid], the Kb rises from 0.18 µM to 0.55 µM (3.1-fold).

`CC(C)CC(Nc1ncc(C(=O)Nc2nnn[nH]2)cn1)c1ccc(-c2ccc(C(F)(F)F)cc2)cc1` (racemic) [Example 1.19, (+/−)-2-(3-methyl-1-(4′-(trifluoromethyl)biphenyl-4-yl)butylamino)-N-(1H-tetrazol-5-yl)pyrimidine-5-carboxamide] and `CC(C)CC(Nc1ccc(C(=O)Nc2nn[nH]n2)cn1)c1ccc(-c2ccc(C(F)(F)F)cc2)cc1` (racemic) [Example 1.20] are within 1.5-fold of each other in Kb: 0.89 µM for the first, 1 µM for the second.

First: CC(C)CC(Nc1ccc(C(=O)NCc2nn[nH]n2)cn1)c1ccc(-c2ccc(C(F)(F)F)cc2)cc1 (racemic) [Example 1.21, (+/−)-N-((2H-tetrazol-5-yl)methyl)-6-(3-methyl-1-(4′-(trifluoromethyl)biphenyl-4-yl)butylamino)nicotinamide]
Second: CC(C)CC(Nc1ccc(C(=O)NCCS(=O)(=O)O)cn1)c1ccc(-c2ccc(C(F)(F)F)cc2)cc1 (racemic) [Example 1.22, (+/−)-2-(6-(3-methyl-1-(4′-(trifluoromethyl)biphenyl-4-yl)butylamino)nicotinamido) ethanesulfonic acid]
The Kb of the first is 13-fold lower: 0.52 µM for the first, 6.7 µM for the second.

Going from `CC(C)CC(Nc1ccc(C(=O)N(C)CCC(=O)O)cn1)c1ccc(-c2ccc(C(F)(F)F)cc2)cc1` (racemic) [Example 1.23, (+/−)-3-(N-methyl-6-(3-methyl-1-(4′-(trifluoromethyl)biphenyl-4-yl)butylamino)nicotinamido)propanoic acid] to `CC(C)CC(Nc1ccc(C(=O)NC[C@@H](O)C(=O)O)cn1)c1ccc(-c2ccc(C(F)(F)F)cc2)cc1` (mixture of isomers) [Example 1.24, (+/−)-(2R)-2-hydroxy-3-(6-(3-methyl-1-(4′-(trifluoromethyl)biphenyl-4-yl)butylamino)nicotinamido)propanoic acid], the Kb rises from 0.3 µM to 1.6 µM (5.3-fold).

First: Cc1cc(C(CC(C)C)Nc2ccc(C(=O)NCCC(=O)O)cn2)ccc1-c1ccc(C(F)(F)F)cc1 (racemic) [Example 1.25, (+/−)-3-(6-(3-methyl-1-(2-methyl-4′-(trifluoromethyl)biphenyl-4-yl)butylamino)nicotinamido)propanoic acid]
Second: Cc1cc(C(CC(C)C)Nc2ncc(C(=O)NCCC(=O)O)cn2)ccc1-c1ccc(C(F)(F)F)cc1 (racemic) [Example 1.26, (+/−)-3-(2-(3-methyl-1-(2-methyl-4′-(trifluoromethyl)biphenyl-4-yl)butylamino)pyrimidine-5-carboxamido)propanoic acid]
The Kb of the first is 4.1-fold lower: 0.095 µM for the first, 0.39 µM for the second.

First: Cc1cc(C(CC(C)C)Nc2ncc(C(=O)NCCC(=O)O)cn2)cc(C)c1-c1ccc(C(F)(F)F)cc1 (racemic) [Example 1.27, (+/−)-3-(2-(1-(2,6-dimethyl-4′-(trifluoromethyl)biphenyl-4-yl)-3-methylbutylamino)pyrimidine-5-carboxamido)propanoic acid]
Second: Cc1cc(C(CC(C)C)Nc2ccc(C(=O)NCCC(=O)O)cn2)cc(C)c1-c1ccc(C(F)(F)F)cc1 (racemic) [Example 1.28, (+/−)-3-(6-(1-(2,6-dimethyl-4′-(trifluoromethyl)biphenyl-4-yl)-3-methylbutylamino)nicotinamido)propanoic acid]
The Kb of the first is 3.1-fold higher: 0.26 µM for the first, 0.083 µM for the second.

Going from `CC(C)CC(Nc1ccc(C(=O)NCCC(=O)O)cn1)c1ccc(-c2ccc(C(F)(F)F)cc2)nc1` (racemic) [Example 1.29, (+/−)-3-(6-(3-methyl-1-(6-(4-(trifluoromethyl)phenyl)pyridin-3-yl)butylamino)nicotinamido)propanoic acid] to `Cc1ccc(-c2ccc(C(CC(C)C)Nc3ccc(C(=O)NCCC(=O)O)cn3)cc2)cn1` (racemic) [Example 1.36, (+/−)-3-(6-(3-methyl-1-(4-(6-methylpyridin-3-yl)phenyl)butylamino)nicotinamido)propanoic acid], the Kb rises from 0.16 µM to 0.87 µM (5.4-fold).

`CCCC(Nc1cnc(C(=O)NCCC(=O)O)cn1)c1ccc(-c2ccc(C(F)(F)F)cc2)cc1` (racemic) [Example 1.30, (+/−)-3-(5-(1-(4′-(trifluoromethyl)biphenyl-4-yl)butylamino)pyrazine-2-carboxamido)propanoic acid] and `CCC(Nc1cnc(C(=O)NCCC(=O)O)cn1)c1ccc(-c2ccc(C(F)(F)F)cc2)cc1` (racemic) [Example 1.31, (+/−)-3-(5-(1-(4′-(trifluoromethyl)biphenyl-4-yl)propylamino)pyrazine-2-carboxamido)propanoic acid] are the same in Kb: 0.54 µM for the first, 0.54 µM for the second.

Compared with `O=C(O)CCNC(=O)c1ccc(NC(c2ccc(-c3ccc(C(F)(F)F)cc3)cc2)C2CCC2)nc1` (racemic) [Example 1.32, (+/−)-3-(6-(cyclobutyl(4′-(trifluoromethyl)biphenyl-4-yl)methylamino)nicotinamido)propanoic acid], `O=C(O)CCNC(=O)c1ccc(NC(c2ccc(-c3ccc(C(F)(F)F)cc3)cc2)C2CCCC2)nc1` (racemic) [Example 1.35, (+/−)-3-(6-(cyclopentyl(4′-(trifluoromethyl)biphenyl-4-yl)methylamino)nicotinamido)propanoic acid] is 12-fold lower in Kb: 0.61 µM for the first, 0.05 µM for the second.

First: CC(C)CC(Nc1ccc(C(=O)NCCC(=O)O)cn1)c1ccc(-c2ccccc2)cc1 (racemic) [Example 1.37]
Second: CC(C)CC(Nc1ccc(C(=O)NCCC(=O)O)cn1)c1ccc(-c2ccccc2F)cc1 (racemic) [Example 1.38, (+/−)-3-(6-(1-(2′-fluorobiphenyl-4-yl)-3-methylbutylamino)nicotinamido)propanoic acid]
The Kb of the first is 2.7-fold lower: 0.22 µM for the first, 0.6 µM for the second.

Going from `CC(C)CC(Nc1ccc(C(=O)NCCC(=O)O)cn1)c1ccc(-c2cccc(Cl)c2)cc1` (racemic) [Example 1.39, (+/−)-3-(6-(1-(3′-chlorobiphenyl-4-yl)-3-methylbutylamino)nicotinamido)propanoic acid] to `CC(C)CC(Nc1ccc(C(=O)NCCC(=O)O)cn1)c1ccc(-c2cccc(F)c2)cc1` (racemic) [Example 1.41, (+/−)-3-(6-(1-(3′-fluorobiphenyl-4-yl)-3-methylbutylamino)nicotinamido)propanoic acid], the Kb rises from 0.11 µM to 0.45 µM (4.1-fold).

Going from `CC(C)CC(Nc1ccc(C(=O)NCCC(=O)O)cn1)c1ccc(-c2cccnc2)cc1` (racemic) [Example 1.40, (+/−)-3-(6-(3-methyl-1-(4-(pyridin-3-yl)phenyl)butylamino)nicotinamido)propanoic acid] to `Cc1ccccc1-c1ccc(C(CC(C)C)Nc2ccc(C(=O)NCCC(=O)O)cn2)cc1` (racemic) [Example 1.42, (+/−)-3-(6-(3-methyl-1-(2′-methylbiphenyl-4-yl)butylamino)nicotinamido)propanoic acid], the Kb falls from 4.6 µM to 0.78 µM (5.9-fold).

`COc1ccccc1-c1ccc(C(CC(C)C)Nc2ccc(C(=O)NCCC(=O)O)cn2)cc1` (racemic) [Example 1.43, (+/−)-3-(6-(1-(2′-methoxybiphenyl-4-yl)-3-methylbutylamino)nicotinamido)propanoic acid] showed a Kb of 0.19 µM.

Reference: patent US8809342B2, “Glucagon receptor modulators” (Pfizer Inc., priority 2010, dated 2014)
